pEC50: −log10 of the molar value.
Key:
Type in all cases: cell-based
[1] = system: hMPV A2 TN/94-49; experiment: HMPV antiviral assay Method 1 (LLC-MK2 cells, ATP-Lite); conditions: hMPV A2 TN/94-49, LLC-MK2 cells
Description: In vitro HMPV antiviral activity was evaluated using the clinical isolate A2 strain TN 94-49 (obtained from Dr. John Williams, Vanderbilt University, Tennessee) and […] cells (ATCC #CCL-7), an immortalized kidney epithelial cell line from Macaca mulatta. Compounds were resuspended in dimethyl sulfoxide (DMSO) at 10 mM, serially diluted and added to a 384-well source plate. Subsequently, the compounds were diluted and transferred onto 384-well assay plates using the Echo-650 automated liquid handling system (Beckman Coulter, Indiana). The test compounds were assessed in duplicate at a top concentration of 2 μM followed by 2.5-fold serial dilutions to give a total of 10 concentration points. DMSO control wells were also included on the assay plates and were either infected or not, acting as positive and negative controls. A2 TN 94-49 virus infections were performed in-suspension with LLC-MK2 cells. The cells were washed twice with PBS and removed from the cell-culture flask with 0.25% trypsin-EDTA (Thermo Fisher Scientific, MA). The trypsin-EDTA was inactivated by resuspending in 2% fetal bovine serum (FBS) and OptiMEM (ThermoFisher Scientific, MA) containing 1% penicillin-streptomycin. Cells were pelleted by centrifuging for 5 minutes at 800 rpm, the supernatant was removed, and cells were re-suspended and washed in PBS plus 100 μg/mL CaCl2). This step was performed twice. Cells were then re-suspended in serum-free (SF)-OptiMEM containing 4 μg/mL TPCK-Trypsin (Sigma Aldrich, MO), 1% penicillin-streptomycin (ThermoFisher Scientific, MA) and 100 μg/mL CaCl2). Cells were counted and seeded at a density of 5,000 cells/well, 12.5 μL/well. Virus infections were done at a multiplicity of infection (MOI) of 0.005 with 12.5 μL added per well. Virus infections were performed in infection media which contained SF-OptiMEM, 100 μg/mL CaCl2) and 1% penicillin-streptomycin. HMPV viral stocks are suspended in infection media+5% glycerol, thus an equal volume of infection media+5% glycerol was added to uninfected wells to equalize the final % glycerol across all wells of the assay plate. The final concentration of TPCK-trypsin was 2 μg/mL. The assay plates were incubated at 37° C., 5% CO2 for 7 days. After 7 days incubation, 12.5 μL of ATP-Lite (PerkinElmer, MA) was added to each well and the raw luminescence values were determined using the Envision 2104 (Perkin Elmer, MA). The average of the raw luminescence values for the cells and virus only positive control wells was subtracted from all conditions tested and the percent cell health was determined by dividing these values by the average of the cells only negative control wells. EC50 values were then calculated by non-linear regression using a four-parameter curve logistic equation. The curve fit model employed was XLFit Dose Response One Site Model 200: y=(A+(B/(1+((x/C)^D)))), where A is the minimum y value, B is the maximum y value, C is the log EC50value, and D is the slope factor. Method 2: In Vitro HMPV Antiviral Activity was Evaluated Using the Clinical Isolate A2 Strain TN 94-49

[2] = system: HUMAN RSV-A (“LONG” STRAIN); experiment: RSV-A assay (CPE, ATPlite) in Hep-2 cells; conditions: human respiratory syncytial virus, 120 h, MOI 0.1, 5-day incubation
From the text: Methods for RSV-A Assay Hep-2 cells, (originally derived from tumors grown in irradiated-cortisonised weanling rats that had been injected with epidermoid carcinoma tissue from the larynx of a person, but later found to be indistinguishable from HeLa cells by PCR DNA analysis), were used for the culturing of genotype A, “Long” strain RSV. Flasks were inoculated with RSV and viral stocks were collected once cytopathic effect (CPE) was greater than 90%. Viral stocks in 25% sucrose media were snap frozen using liquid nitrogen to increase viral stability. Viral stock titers were quantified by tissue culture infectious dose 50% (TCID50) using 8,000 cells per well and 3-fold viral dilutions across a 96-well plate, cultured for 4 days. Viral stock titers were also quantified by a plaque forming unit assay, as described elsewhere.
Following extensive parameter testing, the final assay is run as follows: Hep-2 cells are seeded into the inner 60 wells of a 96-well plate at 8,000 cells per well in a volume of 50 μL using Growth Media (DMEM without phenol red, 1% L-Glut, 1% Penn/Strep, 1% nonessential amino acids, 10% heat-inactivated FBS). 2-fold serial dilutions of control and test compounds are added to the wells in duplicate in a total volume of 25 μL. Viral stock is then added to the wells at a multiplicity of infection (MOI) of 0.1 in a volume of 25 μL, bringing the total volume of each well to 100 μL. The MOI is calculated using the PFU/mL, or TCID50 if unavailable. Each 96-well plate has a control column of 6 wells with cells and virus but no compound (negative control, max CPE), a column with cells but no compound or virus (positive control, minimum CPE), and a column with no cells or virus or compound (background plate/reagent control). The control wells with cells but no virus are given an additional 25 μL of growth media containing an equal quantity of sucrose as those wells receiving the viral stock in order to keep consistent in media and volume conditions. The outer wells of the plate are filled with 125 μL of moat media (DMEM, 1% Penn/Strep) to act as a thermal and evaporative moat around the test wells. Following a 5-day incubation period, the plates are read using ATPlite (50 uL added per well), which quantifies the amount of ATP (a measure of cell health) present in each well. Assay plates are read using the Envision luminometer. […] EC50 ranges are as follows: A<0.2 μM; B>0.2 μM.

[3] = system: hMPV A2 TN/94-49; experiment: HMPV antiviral assay Method 2 (LLC-MK2 cells with CP-100-356, ATP-Lite); conditions: hMPV A2 TN/94-49, LLC-MK2 cells, 4 μM CP-100-356, Method 2
In short: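 LLC-MK2 cells infected in suspension with hMPV A2 TN/94-49 at MOI 0.16, in serum-free OptiMEM with final 2 μg/mL TPCK-trypsin and 2 μM CP-100-356 (P-gp inhibitor). Compounds tested in duplicate, top 200 nM, 2.5-fold, 10 points; 7 days at 37 °C. ATP-Lite cell health normalised to controls; EC50 by four-parameter fit.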

Compound	pEC50 [1]	pEC50 [2]	pEC50 [3]
C[C@]1(C(N)=O)COc2c1cc([C@@](O)(CNC(=O)c1ccc3nc(C(F)(F)F)oc3c1)c1ccccc1)nc2-c1cc(Cl)c(F)cc1F [Example 82]	< 6.30	–	–
COc1cc(C(=O)NC[C@@](O)(c2cc3c(c(-c4cc(Cl)c(F)cc4F)n2)OC[C@]3(C)C(N)=O)c2cc(C)cs2)cc2cn(C3CC3)nc12 [Example 466]	< 6.30	–	–
COc1cc(C(=O)NC[C@@](O)(c2ccccc2)c2cc3c(c(-c4cc(C(F)(F)F)c(F)cc4F)n2)OC[C@]3(C)C(N)=O)cc2cn(C3(F)CC3)nc12 [Example 303]	–	> 6.70	> 6.70
C[C@]1(C(N)=O)COc2c1cc([C@@](O)(CNC(=O)c1cc(OC3CC3)c3nn(C4CC4)cc3c1)c1ccccc1)nc2-c1cc(Cl)c(F)cc1F [Example 98]	–	> 6.70	> 6.70
COc1cc([C@](O)(CNC(=O)c2cc(OC)c3nn(C(F)F)cc3c2)c2cc3c(c(-c4cccc(Cl)c4Cl)n2)OC[C@]3(C)C(N)=O)cc(OC)n1 [Example 498]	–	> 6.70	> 6.70
COc1cc(C(=O)NC[C@@](O)(c2cccc(F)c2)c2cc3c(c(-c4ccc5c(c4Cl)OC(F)(F)O5)n2)OC[C@]3(C)C(N)=O)cc2oc(C)nc12 [Example 285]	–	> 6.70	> 6.70
COc1cc(C(=O)NC[C@@](O)(c2ccccc2)c2cc3c(c(-c4cccc(F)c4Cl)n2)OC[C@]3(C)C(N)=O)cc2cn(C3(F)CC3)nc12 [Example 368]	–	> 6.70	> 6.70
COc1cc(C(=O)NC[C@@](O)(c2cccc(F)c2)c2cc3c(c(-c4ccc5c(c4Cl)OC(F)(F)O5)n2)OC[C@]3(C)C(N)=O)cc2oc(C3CC3)nc12 [Example 286]	–	> 6.70	> 6.70
COc1cc(C(=O)NC[C@@](O)(c2ccccc2)c2cc3c(c(-c4cc(Cl)c(F)cc4F)n2)OC[C@]3(C)C(N)=O)cn2cc(C3CC3)nc12 [Example 115]	–	> 6.70	> 6.70
[2H]C([2H])([2H])NC(=O)[C@@]1(C)COc2c1cc([C@@](O)(CNC(=O)c1cc(OC)c3nn(C4(F)CC4)cc3c1)c1ccccc1)nc2-c1cc(Cl)c(F)cc1F [Example 109]	–	> 6.70	> 6.70
COc1cc(C(=O)NC[C@@](O)(c2ccc(=O)[nH]c2)c2cc3c(c(-c4cc(Cl)c(F)cc4F)n2)OC[C@]3(C)C(N)=O)cc2cn(C3CC3)nc12 [Example 505]	–	> 6.70	< 6.70
COc1cc(C(=O)NC[C@@](O)(c2ccccc2)c2cc3c(c(-c4cccc5c4OCO5)n2)OC[C@]3(C)C(N)=O)cc2cn(C3(F)CC3)nc12 [Example 366]	–	> 6.70	< 6.70
[2H]c1nc2c(OC)cc(C(=O)NC[C@@](O)(c3ccccc3)c3cc4c(c(-c5cc(Cl)c(F)cc5F)n3)OC[C@]4(C)C(N)=O)cc2cc1Cl [Example 220]	–	> 6.70	> 6.70
COc1cc(C(=O)NC[C@@](O)(c2cccc(F)c2)c2cc3c(c(-c4cc(F)c(F)cc4C(N)=O)n2)OC[C@]3(C)C(N)=O)cc2cn(C3(F)CC3)nc12 [Example 405]	–	< 6.70	< 6.70
COc1cc(C(=O)NC[C@@](O)(c2cnccn2)c2cc3c(c(-c4cc(Cl)c(F)cc4F)n2)OC[C@]3(C)C(N)=O)cc2cn(C3CC3)nc12 [Example 487]	–	> 6.70	> 6.70
COc1cc(C(=O)NC[C@@](O)(c2ccnc(N)c2)c2cc3c(c(-c4cc(Cl)c(F)cc4F)n2)OC[C@]3(C)C(N)=O)cc2cn(C3CC3)nc12 [Example 484]	–	> 6.70	> 6.70
C[C@]1(C(N)=O)COc2c1cc([C@@](O)(CNC(=O)c1ccc3nc(C4CC4)oc3c1)c1ccccc1)nc2-c1cccc(Cl)c1Cl [Example 97]	–	> 6.70	> 6.70
Cc1nc2c(OC(F)F)cc(C(=O)NC[C@](O)(c3cc4c(c(-c5cc(Cl)c(F)cc5F)n3)OC[C@]4(C)C(N)=O)c3ccccc3F)cc2cc1Br [Example 139]	–	> 6.70	< 6.70
C[C@]1(C(N)=O)COc2c1cc([C@@](O)(CNC(=O)c1ccc3nc(C4(F)CC4)oc3c1)c1ccccc1)nc2-c1cc(Cl)c(F)cc1F [Example 219]	–	> 6.70	> 6.70
C[C@]1(C(N)=O)COc2c1cc([C@@](O)(CNC(=O)c1cc(OC3CC3)c3ncc(Cl)cc3c1)c1ccccc1)nc2-c1cc(F)c(F)cc1F [Example 197]	–	> 6.70	> 6.70
COc1cc(C(=O)NC[C@@](O)(c2cccc(C#N)c2)c2cc3c(c(-c4cc(Cl)c(F)cc4F)n2)OC[C@]3(C)C(N)=O)cc2cn(C3CC3)nc12 [Example 488]	–	> 6.70	> 6.70
COc1cc(C(=O)NC[C@@](O)(c2ccccc2)c2cc3c(c(-c4cc(Cl)c(F)cc4F)n2)OC[C@]3(C)C(N)=O)cc2oc(C3(F)CC3)nc12 [Example 241]	–	> 6.70	> 6.70
C[C@]1(C(N)=O)COc2c1cc([C@@](O)(CNC(=O)c1cc(OC3CC3)c3ncc(Cl)cc3c1)c1ccccc1)nc2-c1cc(Cl)c(F)cc1F [Example 196]	–	> 6.70	> 6.70
COc1cc(C(=O)NC[C@@](O)(c2cccc(F)n2)c2cc3c(c(-c4cc(Cl)c(F)cc4F)n2)OC[C@]3(C)C(N)=O)cc2cn(C3(F)CC3)nc12 [Example 204]	–	> 6.70	> 6.70
COc1cc(C(=O)NC[C@@](O)(c2cccc(F)n2)c2cc3c(c(-c4cc(Cl)c(F)cc4F)n2)OC[C@]3(C)C(N)=O)cn2cc(C3CC3)nc12 [Example 154]	–	> 6.70	> 6.70
C[C@]1(C(N)=O)COc2c1cc([C@@](O)(CNC(=O)c1ccc3nc(C4CC4)oc3c1)c1cccc(F)c1)nc2-c1cc(C(F)(F)F)c(F)cc1F [Example 308]	–	> 6.70	< 6.70
COc1cc(C(=O)NC[C@@](O)(c2ccncc2)c2cc3c(c(-c4cc(Cl)c(F)cc4F)n2)OC[C@]3(C)C(N)=O)cc2cn(C3CC3)nc12 [Example 152]	–	> 6.70	> 6.70
COc1cc(C(=O)NC[C@@](O)(c2cccc(F)c2)c2cc3c(c(-c4cccc(Cl)c4Cl)n2)OC[C@]3(C)C(N)=O)cn2cc(C3CC3)nc12 [Example 337]	–	> 6.70	> 6.70
